Laboratory results reported in PMC4105567, “Aurora Kinases as Druggable Targets in Pediatric Leukemia: Heterogeneity in Target Modulation Activities and Cytotoxicity by Diverse Novel Therapeutic Agents” (PLoS ONE, 2014).
Like-named read-outs stand apart in the source and are kept apart here.

What was measured:
Bone Marrow Stroma = assay: Cytotoxicity assay, bone marrow stroma; format: cell-based, human; conditions: bone marrow stroma (control for non-leukemia cytotoxicity), four days in culture, ± SD, three experiments
Description: (§1) For cytotoxicity profiling of Aurora kinase inhibitors against leukemia cell lines, inhibitors or vehicle control (DMSO, Sigma-Aldrich) were diluted in 100 µl of Opti-MEM per well in 96 well plates (Grenier Bio-One, Monroe, North Carolina) in triplicate at final concentrations ranging from 1×10^−6 to 10 µM. 1×10^4 cells per well were seeded and plates were incubated for 4 days. Following incubation for 4 days, cell survival was quantified by Alamar blue assay (Invitrogen) or automated inverted microscopy using the Celigo Cell Cytometer (Cyntellect, San Diego, California). […] During this period of incubation, the absorbance at 570–620 nm was measured (Opsys MR Plate Reader, Dynex Technologies, Chantilly, Virginia) at various time points, depending on the cell line or sample. Percent survival was calculated by comparing the absorbance ratio of the test well to the control well multiplied by 100%, as indicated in the following formula: […]
(§2) For automated inverted microscopy, the number of cells in each well was determined using the direct cell counting application as described previously. Briefly, following adjustment of image acquisition settings for bright-field imaging, the wells containing cells and appropriate dilutions of inhibitors were individually scanned. Based on these images, analysis parameters, including intensity threshold and cell diameter, were modified for optimal inclusion of viable cells in treated and control wells. These parameters were applied for subsequent replicates involving the same leukemia cell line or sample. The percent survival was then calculated as a ratio of the number of cells in treated wells to the number of cells in control wells multiplied by 100%. Given that Aurora kinase inhibitors interfere with cytokinesis, cells that are committed to death may still contain enlarging but intact cytoplasmic content before the eventual loss of cytoplasmic membrane integrity. The accuracy of Alamar blue assay may be, in theory, affected by the timing of these events.

[1] = system: Patient #3 AML/CML primary leukemia cells; assay: Cytotoxicity assay, primary sample Patient #3; format: cell-based, human; conditions: four days in culture, Alamar blue assay or automated microscopy, one complete study
Description: (§3) These include B-ALL (Patient #1), relapsed AML (Patient #2), AML/CML (Patient #3), infant ALL (Patient #4), and initial ALL presenting with secondary AML (Patient #5). […] The diluted sample was then layered on a Ficoll-Paque (GE Healthcare, Piscataway, New Jersey) gradient at a 1∶2 ratio of Ficoll to diluted sample. Samples were then centrifuged 1800 rpm for 20 minutes at room temperature. The buffy coat was removed with a pipette and transferred to a new centrifuge tube and diluted with PBS. After an additional centrifugation at 1200 rpm, the white blood cell pellet was washed with PBS and centrifuged one last time. Cells were re-suspended in Opti-MEM and viable cells were counted using trypan blue (Invitrogen, Life Technologies Corporation, Burlington, Ontario) exclusion on a haemocytometer. An identical protocol was followed for the isolation of white blood cells, referred to as “normal lymphocytes” in the following paragraphs, from healthy volunteers. Samples grown in culture for up to six months were cultured in Opti-MEM medium supplemented with 10% heat inactivated FBS, penicillin/streptomycin and 2-mercaptoethanol.
as §1, §2

[2] = system: Patient #5 ALL/AML primary leukemia cells; assay: Cytotoxicity assay, primary sample Patient #5; format: cell-based, human; conditions: primary sample, four days in culture, Alamar blue assay or automated microscopy, one complete study, read-out: IC50, Patient #5 ALL/AML
Description: as §3, §1, §2

KOPN8 B-ALL cell line = assay: Cytotoxicity assay, KOPN8; format: cell-based, human; conditions: four days in culture, Alamar blue assay or automated microscopy, ± SD, three experiments
Description: (§4) Cell lines were cultured in Opti-MEM medium (Gibco, Life Technologies Corporation, Burlington, Ontario) supplemented with 10% heat inactivated fetal bovine serum (FBS) (Gibco), 100 units/ml penicillin and 100 units/ml streptomycin (Gibco) and 0.05 mM 2-mercaptoethanol (Sigma-Aldrich, Oakville, Ontario) in T25 flasks (Nalge Nunc, Rochester, New York) or T75 flasks (Corning Incorporated, Corning, New York). All cell cultures were maintained at 37°C in a humidified incubator with 5% CO2.
as §1, §2

HL-60 APML cell line = assay: Cytotoxicity assay, HL-60; format: cell-based, human; conditions: APML cell line HL-60, four days in culture, Alamar blue assay or automated microscopy, ± SD, three experiments
Description: as §4, §1, §2

[3] = system: Patient #1 B-ALL primary leukemia cells; assay: Cytotoxicity assay, primary sample Patient #1; format: cell-based, human; conditions: four days in culture, Alamar blue assay or automated microscopy, one complete study
Description: as §3, §1, §2

NB4 APML cell line = assay: Cytotoxicity assay, NB4; format: cell-based, human; conditions: four days in culture, Alamar blue assay or automated microscopy, ± SD, three experiments
Description: as §4, §1, §2

[4] = system: normal cells versus leukemia cell lines; assay: Comparison of cytotoxicity IC50 values, normal cells versus leukemia cell lines; format: cell-based, human; conditions: normal lymphocytes and bone marrow stroma versus leukemia cell lines of Table 2
Description: as §1, §2

Normal Lymphocytes = assay: Cytotoxicity assay, normal lymphocytes; format: cell-based, human; conditions: normal lymphocytes (control for non-leukemia cytotoxicity), four days in culture, ± SD, three experiments
Description: as §3, §1, §2

HL-60 RA APML cell line = assay: Cytotoxicity assay, HL-60 RA; format: cell-based, human; conditions: APML cell line HL-60 RA, four days in culture, Alamar blue assay or automated microscopy, ± SD, three experiments
Description: as §4, §1, §2

MV4-11 AML cell line = assay: Cytotoxicity assay, MV4-11; format: cell-based, human; conditions: AML cell line MV4-11, four days in culture, Alamar blue assay or automated microscopy, ± SD, three experiments
Description: as §4, §1, §2

Nalm6 B-ALL cell line = assay: Cytotoxicity assay, Nalm6; format: cell-based, human; conditions: four days in culture, Alamar blue assay or automated microscopy, ± SD, three experiments
Description: as §4, §1, §2

TIB-202 AML cell line = assay: Cytotoxicity assay, TIB-202; format: cell-based, human; conditions: AML cell line TIB-202, four days in culture, Alamar blue assay or automated microscopy, ± SD, three experiments
Description: as §4, §1, §2

UOCB1 B-ALL cell line = assay: Cytotoxicity assay, UOCB1; format: cell-based, human; conditions: four days in culture, Alamar blue assay or automated microscopy, ± SD, three experiments
Description: as §4, §1, §2

CEM T-ALL cell line = assay: Cytotoxicity assay, CEM; format: cell-based, human; conditions: four days in culture, Alamar blue assay or automated microscopy, ± SD, three experiments
Description: as §4, §1, §2

[5] = system: Patient #4 infant leukemia primary cells; assay: Cytotoxicity assay, primary sample Patient #4; format: cell-based, human; conditions: four days in culture, Alamar blue assay or automated microscopy, one complete study
Description: as §3, §1, §2

Molm13 AML cell line = assay: Cytotoxicity assay, Molm13; format: cell-based, human; conditions: four days in culture, Alamar blue assay or automated microscopy, ± SD, three experiments
Description: as §4, §1, §2

B1 B-ALL cell line = assay: Cytotoxicity assay, B1; format: cell-based, human; conditions: four days in culture, Alamar blue assay or automated microscopy, ± SD, three experiments
Description: as §4, §1, §2

[6] = system: Patient #2 relapsed AML primary leukemia cells; assay: Cytotoxicity assay, primary sample Patient #2; format: cell-based, human; conditions: four days in culture, Alamar blue assay or automated microscopy, one complete study
Description: as §3, §1, §2

Molt-3 T-ALL cell line = assay: Cytotoxicity assay, Molt-3; format: cell-based, human; conditions: T-ALL cell line Molt-3, four days in culture, Alamar blue assay or automated microscopy, ± SD, three experiments
Description: as §4, §1, §2

C1 B-ALL cell line = assay: Cytotoxicity assay, C1; format: cell-based, human; conditions: four days in culture, Alamar blue assay or automated microscopy, ± SD, three experiments
Description: as §4, §1, §2

Aurora-C = conditions: read-out: Targets (IC50 Value): Aurora-C; literature values; ref [10],[40],[44]–[64] as listed per inhibitor in Table 1; cited from earlier work
SEM B-ALL cell line = assay: Cytotoxicity assay, SEM; format: cell-based; conditions: Homo sapiens, 96 h, four days in culture, Alamar blue assay or automated microscopy, ± SD, three experiments
Description: as §4, §1, §2

Compound	IC50 values for the normal cells compared with IC50 values for the leukemia cell lines (potential therapeutic window) [4]	IC50 (Bone Marrow Stroma; Homo sapiens, 96 h)	IC50 ([1]; Homo sapiens, 96 h)	IC50 ([2]; Homo sapiens, 96 h)	IC50 (KOPN8 B-ALL cell line; Homo sapiens, KOPN-8, 96 h)	IC50 (HL-60 APML cell line; Homo sapiens, 96 h)	IC50 ([3]; Homo sapiens, 96 h)	IC50 (NB4 APML cell line; Homo sapiens, 96 h)	IC50 (Normal Lymphocytes; Homo sapiens, Lymphocyte, 96 h)	IC50 (HL-60 RA APML cell line; Homo sapiens, 96 h)	IC50 (MV4-11 AML cell line; Homo sapiens, 96 h)	IC50 (Nalm6 B-ALL cell line; Homo sapiens, NALM-6, 96 h)	IC50 (TIB-202 AML cell line; Homo sapiens, 96 h)	IC50 (UOCB1 B-ALL cell line; Homo sapiens, UoC-B1, 96 h)	IC50 (CEM T-ALL cell line; Homo sapiens, 96 h)	IC50 ([5]; Homo sapiens, 96 h)	IC50 (Molm13 AML cell line; Homo sapiens, MOLM-13, 96 h)	IC50 (B1 B-ALL cell line; Homo sapiens, 96 h)	IC50 ([6]; Homo sapiens, 96 h)	IC50 (SEM B-ALL cell line)	further results
COc1cc2c(Nc3ccc(NC(=O)c4ccccc4)cc3)ncnc2cc1OCCCN1CCOCC1 [ZM447439]	lower than the IC50 values for the normal cells, but not as pronounced	–	–	–	–	–	–	–	–	–	–	–	–	–	–	–	–	–	–	–	IC50 (Bone Marrow Stroma): 2000 ± 400 nM; IC50 [1]: 10000 nM; IC50 [2]: 9 nM; IC50 (KOPN8 B-ALL cell line): 100 ± 70 nM; IC50 (HL-60 APML cell line): 1000 ± 100 nM; IC50 [3]: 20 nM; IC50 (NB4 APML cell line): 4000 ± 2000 nM; IC50 (Normal Lymphocytes): 6000 ± 800 nM; IC50 (HL-60 RA APML cell line): 500 ± 300 nM; IC50 (MV4-11 AML cell line): 200 ± 100 nM; IC50 (Nalm6 B-ALL cell line): 80 ± 4 nM; IC50 (TIB-202 AML cell line): 800 ± 100 nM; IC50 (UOCB1 B-ALL cell line): 80 ± 20 nM; IC50 (CEM T-ALL cell line): 60 ± 30 nM; IC50 [5]: 7000 nM; IC50 (Molm13 AML cell line): 500 ± 300 nM; IC50 (B1 B-ALL cell line): 1000 ± 50 nM; IC50 [6]: > 10000 nM; IC50 (Molt-3 T-ALL cell line): 90 ± 10 nM; IC50 (C1 B-ALL cell line): 80 ± 20 nM
Cc1nc(N)sc1-c1ccnc(Nc2ccc(N3CCOCC3)cc2)n1 [CYC116]	lower than the IC50 values for the normal cells, but not as pronounced	5000 ± 2000 nM	> 10000 nM	0.4 nM	1000 ± 600 nM	7000 ± 3000 nM	10 nM	3000 ± 2000 nM	> 10000 nM	300 ± 80 nM	5 ± 4 nM	500 ± 300 nM	600 ± 50 nM	200 ± 90 nM	70 ± 9 nM	> 10000 nM	400 ± 200 nM	1000 ± 600 nM	70 nM	100 ± 4 nM	IC50 (Aurora-C): 69 nM; IC50 (Molt-3 T-ALL cell line; Homo sapiens, 96 h): 70 ± 20 nM; IC50 (C1 B-ALL cell line; Homo sapiens, 96 h): 200 ± 100 nM
Cc1cc(Nc2cc(N3CCN(C)CC3)nc(/C=C/c3ccccc3)n2)n[nH]1 [ENMD-2076]	lower than the IC50 values for the normal cells, but not as pronounced	3000 ± 1000 nM	4000 nM	30 nM	600 ± 300 nM	700 ± 90 nM	100 nM	1000 ± 600 nM	5000 ± 3000 nM	700 ± 200 nM	1 ± 0.1 nM	200 ± 100 nM	800 ± 200 nM	1000 ± 500 nM	600 ± 50 nM	10000 nM	40 ± 20 nM	1000 ± 300 nM	8 nM	500 ± 400 nM	IC50 (Molt-3 T-ALL cell line; Homo sapiens, 96 h): 800 ± 50 nM; IC50 (C1 B-ALL cell line; Homo sapiens, 96 h): 700 ± 200 nM
